Species: Rattus norvegicus
Assay: DrugMatrix - Regimen: Daily Repeat
Type: toxicity, organism-based, Sprague-Dawley
Set-up: regimen Daily Repeat, gender Male, age 6-8 weeks
Settings: in vivo, po, route oral GAVAGE, […]; for ABSOLUTE BASOPHIL / ABSOLUTE EOSINOPHIL / ABSOLUTE LYMPHOCYTE / ABSOLUTE MONOCYTE / ABSOLUTE SEGMENTED NEUTROPHIL / BASOPHIL / EOSINOPHIL / ERYTHROCYTE COUNT / HEMATOCRIT / HEMOGLOBIN / LEUKOCYTE COUNT / LYMPHOCYTE / MEAN CORPUSCULAR HEMOGLOBIN / MEAN CORPUSCULAR HEMOGLOBIN CONCENTRATION / MEAN CORPUSCULAR VOLUME / MONOCYTE / NEUTROPHIL / NUCLEATED RED BLOOD CELLS / PLATELET COUNT: tissue Blood; for ALANINE AMINOTRANSFERASE / ALBUMIN / ALKALINE PHOSPHATASE / ASPARTATE AMINOTRANSFERASE / BLOOD UREA NITROGEN / CARBON DIOXIDE / CHLORIDE / CHOLESTEROL / CREATINE PHOSPHOKINASE / CREATININE / GLUCOSE / LACTATE DEHYDROGENASE / LIPASE / PHOSPHORUS / POTASSIUM / SODIUM / TOTAL BILIRUBIN / TOTAL PROTEIN / URIC ACID: tissue Plasma
[1] = 0 mg/kg, 72 h, dose level Control, time 3 day
[2] = 0 mg/kg, 120 h, dose level Control, time 5 day
[3] = 1 mg/kg, 72 h, dose level Low, time 3 day

## O=C(O)COC(=O)Cc1ccccc1Nc1c(Cl)cccc1Cl [ACECLOFENAC]
[1]
  ABSOLUTE BASOPHIL: 0 CELLS/uL
  ABSOLUTE EOSINOPHIL: 0 CELLS/uL
  ABSOLUTE LYMPHOCYTE: 9244.83 CELLS/uL
  ABSOLUTE MONOCYTE: 102 CELLS/uL
  ABSOLUTE SEGMENTED NEUTROPHIL: 869.83 CELLS/uL
  BASOPHIL: 0%
  EOSINOPHIL: 0%
  ERYTHROCYTE COUNT: 5.43 x10E6/uL
  HEMATOCRIT: 34.03%
  HEMOGLOBIN: 13.27 G/DL
  LEUKOCYTE COUNT: 10.22 x10E3/uL
  LYMPHOCYTE: 90.33%
  MEAN CORPUSCULAR HEMOGLOBIN: 24.48 pg
  MEAN CORPUSCULAR HEMOGLOBIN CONCENTRATION: 39.03 G/DL
  MEAN CORPUSCULAR VOLUME: 62.75 fL
  MONOCYTE: 1%
  NEUTROPHIL: 8.67%
  NUCLEATED RED BLOOD CELLS: 0.17 /100WBC
  PLATELET COUNT: 989 x10E3/uL
  ALANINE AMINOTRANSFERASE: 77 u/L
  ALBUMIN: 3.97 G/DL
  ALKALINE PHOSPHATASE: 464.83 u/L
  ASPARTATE AMINOTRANSFERASE: 89.83 u/L
  BLOOD UREA NITROGEN: 12.17 mg/dL
  CARBON DIOXIDE: 34.17 mmol/L
  CHLORIDE: 98.33 MEQ/L
  CHOLESTEROL: 75.17 mg/dL
  CREATINE PHOSPHOKINASE: 367.67 u/L
  CREATININE: 0.16 mg/dL
  GLUCOSE: 142.67 mg/dL
  LACTATE DEHYDROGENASE: 139.33 u/L
  LIPASE: 9.5 u/L
  PHOSPHORUS: 10.85 mg/dL
  POTASSIUM: 6.38 MEQ/L
  SODIUM: 143.2 MEQ/L
  TOTAL BILIRUBIN: 0.2 mg/dL
  TOTAL PROTEIN: 5.77 G/DL
  URIC ACID: 0.7 mg/dL
[2]
  ABSOLUTE BASOPHIL: 0 CELLS/uL
  ABSOLUTE EOSINOPHIL: 0 CELLS/uL
  ABSOLUTE LYMPHOCYTE: 8295.33 CELLS/uL
  ABSOLUTE MONOCYTE: 84.67 CELLS/uL
  ABSOLUTE SEGMENTED NEUTROPHIL: 970 CELLS/uL
  BASOPHIL: 0%
  EOSINOPHIL: 0%
  ERYTHROCYTE COUNT: 5.74 x10E6/uL
  HEMATOCRIT: 36.22%
  HEMOGLOBIN: 13.85 G/DL
  LEUKOCYTE COUNT: 9.35 x10E3/uL
  LYMPHOCYTE: 88.67%
  MEAN CORPUSCULAR HEMOGLOBIN: 24.13 pg
  MEAN CORPUSCULAR HEMOGLOBIN CONCENTRATION: 38.25 G/DL
  MEAN CORPUSCULAR VOLUME: 63.08 fL
  MONOCYTE: 1%
  NEUTROPHIL: 10.33%
  NUCLEATED RED BLOOD CELLS: 0.17 /100WBC
  PLATELET COUNT: 883.83 x10E3/uL
  ALANINE AMINOTRANSFERASE: 64.5 u/L
  ALBUMIN: 4.12 G/DL
  ALKALINE PHOSPHATASE: 425.67 u/L
  ASPARTATE AMINOTRANSFERASE: 88.5 u/L
  BLOOD UREA NITROGEN: 14.17 mg/dL
  CARBON DIOXIDE: 30.5 mmol/L
  CHLORIDE: 100.33 MEQ/L
  CHOLESTEROL: 55.33 mg/dL
  CREATINE PHOSPHOKINASE: 287.17 u/L
  CREATININE: 0.2 mg/dL
  GLUCOSE: 162.83 mg/dL
  LACTATE DEHYDROGENASE: 111.33 u/L
  LIPASE: 10.5 u/L
  PHOSPHORUS: 10.32 mg/dL
  POTASSIUM: 5.13 MEQ/L
  SODIUM: 143.93 MEQ/L
  TOTAL BILIRUBIN: 0.17 mg/dL
  TOTAL PROTEIN: 5.9 G/DL
  URIC ACID: 0.77 mg/dL
[3]
  ABSOLUTE BASOPHIL: 0 CELLS/uL
  ABSOLUTE EOSINOPHIL: 34 CELLS/uL
  ABSOLUTE LYMPHOCYTE: 11265.67 CELLS/uL
  ABSOLUTE MONOCYTE: 0 CELLS/uL
  ABSOLUTE SEGMENTED NEUTROPHIL: 933.67 CELLS/uL
  BASOPHIL: 0%
  EOSINOPHIL: 0.33%
  ERYTHROCYTE COUNT: 5.17 x10E6/uL
  HEMATOCRIT: 32.3%
  HEMOGLOBIN: 12.7 G/DL
  LEUKOCYTE COUNT: 12.23 x10E3/uL
  LYMPHOCYTE: 92.33%
  MEAN CORPUSCULAR HEMOGLOBIN: 24.6 pg
  MEAN CORPUSCULAR HEMOGLOBIN CONCENTRATION: 39.37 G/DL
  MEAN CORPUSCULAR VOLUME: 62.53 fL
  MONOCYTE: 0%
  NEUTROPHIL: 7.33%
  NUCLEATED RED BLOOD CELLS: 0 /100WBC
  PLATELET COUNT: 1096 x10E3/uL
  ALANINE AMINOTRANSFERASE: 63.33 u/L
  ALBUMIN: 4.13 G/DL
  ALKALINE PHOSPHATASE: 435.67 u/L
  ASPARTATE AMINOTRANSFERASE: 81.67 u/L
  BLOOD UREA NITROGEN: 12.33 mg/dL
  CARBON DIOXIDE: 33 mmol/L
  CHLORIDE: 98 MEQ/L
  CHOLESTEROL: 77.33 mg/dL
  CREATINE PHOSPHOKINASE: 224.33 u/L
  CREATININE: 0.13 mg/dL
  GLUCOSE: 132.33 mg/dL
  LACTATE DEHYDROGENASE: 137.33 u/L
  LIPASE: 9.67 u/L
  PHOSPHORUS: 11.77 mg/dL
  POTASSIUM: 6.44 MEQ/L
  SODIUM: 143.43 MEQ/L
  TOTAL BILIRUBIN: 0.2 mg/dL
  TOTAL PROTEIN: 5.9 G/DL
  URIC ACID: 0.77 mg/dL

— ChEMBL document CHEMBL3885881, “DrugMatrix”
